According to patent publication US12358897B2, “Compounds and method of treating COVID-19” (Pfizer Inc., priority 2020, dated 2025):

Target: T1, full-length SARS-CoV-2 3CL protease (Severe acute respiratory syndrome coronavirus 2, UniProt P0DTD1)
T1 construct: measures the activity of full-length SARS-CoV-2 3CL protease
Assay: SARS-CoV-2 Coronavirus 3C Protease FRET Assay (Dabcyl-KTSAVLQ-SGFRKME-Edans substrate)
Type: biochemical
Settings: 15 nM enzyme, 25 μM peptide substrate, 60 minutes at 23° C.; Morrison equation fit; read-out: Geometric Mean Ki

Compound	Ki [nM]
COc1cccc2[nH]c(C(=O)N[C@@H](CC(C)C)C(=O)N[C@@H](C[C@@H]3CCNC3=O)C(=O)COC(=O)c3ccccc3Cl)cc12 [Example 16, (3S)-3-({N-[(4-methoxy-1H-indol-2-yl)carbonyl]-L-leucyl}amino)-2-oxo-4-[(3S)-2-oxopyrrolidin-3-yl]butyl 2-chlorobenzoate]	10.5
CCC(=O)OCC(=O)[C@H](C[C@@H]1CCNC1=O)NC(=O)[C@H](CC(C)C)NC(=O)c1cc2c(OC)cccc2[nH]1 [Example 9, (3S)-3-({N-[(4-methoxy-1H-indol-2-yl)carbonyl]-L-leucyl}amino)-2-oxo-4-[(3S)-2-oxopyrrolidin-3-yl]butyl propanoate]	33.6
COc1cccc2[nH]c(C(=O)N[C@@H](CC(C)C)C(=O)N[C@@H](C[C@@H]3CCNC3=O)C(=O)COC(=O)C3(C)CCN(C)CC3)cc12 [Example 17, (3S)-3-({N-[(4-methoxy-1H-indol-2-yl)carbonyl]-L-leucyl}amino)-2-oxo-4-[(3S)-2-oxopyrrolidin-3-yl]butyl 1,4-dimethylpiperidine-4-carboxylate]	17.5
COc1cccc2[nH]c(C(=O)N[C@@H](CC(C)C)C(=O)N[C@@H](C[C@@H]3CCNC3=O)C(=O)COC(=O)c3ccccn3)cc12 [Example 35, (3S)-3-({N-[(4-methoxy-1H-indol-2-yl)carbonyl]-L-leucyl}amino)-2-oxo-4-[(3S)-2-oxopyrrolidin-3-yl]butyl pyridine-2-carboxylate]	4.43
COc1cccc2[nH]c(C(=O)N[C@@H](CC(C)C)C(=O)N[C@@H](C[C@@H]3CCNC3=O)C(=O)COC(=O)[C@H]3CCCN3C)cc12 [Example 27, (3S)-3-({N-[(4-methoxy-1H-indol-2-yl)carbonyl]-L-leucyl}amino)-2-oxo-4-[(3S)-2-oxopyrrolidin-3-yl]butyl 1-methyl-D-prolinate]	0.0321
COc1cccc2[nH]c(C(=O)N[C@@H](CC(C)C)C(=O)N[C@@H](C[C@@H]3CCNC3=O)C(=O)COC(=O)c3cccnc3C)cc12 [Example 24, (3S)-3-({N-[(4-methoxy-1H-indol-2-yl)carbonyl]-L-leucyl}amino)-2-oxo-4-[(3S)-2-oxopyrrolidin-3-yl]butyl 2-methylpyridine-3-carboxylate]	14.2
COc1cccc2[nH]c(C(=O)N[C@@H](CC(C)C)C(=O)N[C@@H](C[C@@H]3CCNC3=O)C(=O)COC(=O)c3c(C)nc(C4CCOCC4)nc3C)cc12 [Example 75, (3S)-3-({N-[(4-methoxy-1H-indol-2-yl)carbonyl]-L-leucyl}amino)-2-oxo-4-[(3S)-2-oxopyrrolidin-3-yl]butyl 4,6-di methyl-2-(tetrahydro-2H-pyran-4-yl)pyrimidine-5-carboxylate]	5.5
COc1cccc2[nH]c(C(=O)N[C@@H](CC(C)C)C(=O)N[C@@H](C[C@@H]3CCNC3=O)C(=O)COC(=O)c3c(C)ccnc3CN(C)C)cc12 [Example 59, (3S)-3-({N-[(4-methoxy-1H-indol-2-yl)carbonyl]-L-leucyl}amino)-2-oxo-4-[(3S)-2-oxopyrrolidin-3-yl]butyl 2-[(dimethylamino)methyl]-4-methylpyridine-3-carboxylate]	13.6
COc1cccc2[nH]c(C(=O)N[C@@H](CC(C)C)C(=O)N[C@@H](C[C@@H]3CCNC3=O)C(=O)COC(=O)C3CCN(C)CC3)cc12 [Example 30, (3S)-3-({N-[(4-methoxy-1H-indol-2-yl)carbonyl]-L-leucyl}amino)-2-oxo-4-[(3S)-2-oxopyrrolidin-3-yl]butyl 1-methylpiperidine-4-carboxylate]	6.13
COc1cccc2[nH]c(C(=O)N[C@@H](CC(C)C)C(=O)N[C@@H](C[C@@H]3CCNC3=O)C(=O)COC(=O)CN(C)C)cc12 [Example 4, (3S)-3-({N-[(4-methoxy-1H-indol-2-yl)carbonyl]-L-leucyl}amino)-2-oxo-4-[(3S)-2-oxopyrrolidin-3-yl]butyl N,N-dimethylglycinate]	2.98
